Assay results published in US20220025336A1, “METHOD FOR PRODUCING INSULIN-PRODUCING CELLS, AND COMPOSITION” (KATAOKA CORPORATION, priority 2018, published 2022).

Columns and labels:
[1] = system: human fibroblasts; assay: Direct induction from human fibroblasts into insulin-producing cells; amount of insulin secreted; type: cell-based
Description: (§1) The insulin-producing cell produced by the present invention process can be detected, identified, and isolated using, for example, a morphological change of a cell, a characteristic property of an insulin-producing cell, or a specific marker (e.g., an anti-insulin antibody). Moreover, the secretory capacity of the obtained insulin-producing cell can also be evaluated by quantifying the amount of secreted insulin using sandwich ELISA.
The human fibroblasts used as the material were purchased from DS Pharma Biomedical Co., Ltd. The fibroblasts are derived from human skin.
Human fibroblasts were seeded in 35-mm dishes coated with gelatin (Cat#: 190-15805, manufactured by Wako Pure Chemical Industries, Ltd.) at 5×10^4 cells/dish, and cultured in DMEM medium (manufactured by Gibco) supplemented with 10% fetal bovine serum (FBS), 100 U/mL penicillin, and 100 μg/mL streptomycin until confluent under conditions of 37° C. and 5% CO2. Note that DMEM refers to Dulbecco's Modified Eagle's Medium.
The medium of dishes of the human fibroblasts described above was replaced with the differentiation induction medium described below.
Differentiation induction medium: Advanced DMEM/F-12 (Cat#: 12634010; manufactured by Gibco) supplemented with ITS-X (Cat#: 51500056, manufactured by Gibco), non-essential amino acids (NEAA; Cat#: 11140050, manufactured by Gibco), Glutamine (manufactured by Gibco; final concentration: 2 mmol/L), Nicotinamide (Cat#: 72340-10OG, manufactured by Sigma-Aldrich; final concentration: 10 mmol/L), Exendin-4 (Cat#: av120214, manufactured by Abcam; final concentration: 100 ng/mL), 100 U/mL penicillin, 100 μg/mL streptomycin, insulin, and low molecular weight compounds described below, with or without addition of 10% fetal bovine serum (FBS, manufactured by Hyclone).
Subsequently, the cells were cultured under conditions of 37° C. and 5% CO2 while the medium was changed to the medium of the same composition every three days. […]

[2] = system: human adipose tissue-derived mesenchymal stem cells (AdMSC); assay: Direct induction from human adipose tissue-derived mesenchymal stem cells (AdMSC) into insulin-producing cells; amount of insulin secreted; type: cell-based; conditions: FIG. 5; 120 μg/mL insulin; cultured 14 days
Description: as §1
Human mesenchymal stem cells isolated from adipose tissue were purchased from Takara Bio Co., Ltd.
Human mesenchymal stem cells were seeded in 35-mm dishes coated with gelatin (Cat#: 190-15805, manufactured by Wako Pure Chemical Industries, Ltd.) at 5×10^4 cells/dish, and cultured in Mesenchymal Stem Cell Growth Medium 2 (Cat#: C-28009; manufactured by Takara Bio Co., Ltd.) supplemented with 100 U/mL penicillin and 100 μg/mL streptomycin until the cells were almost confluent under conditions of 37° C. and 5% CO2.
The medium of dishes of the human mesenchymal stem cells described above was replaced with the differentiation induction medium described below. […]

Row | Molecule | insulin secretion / secretory capacity of induced cells by combination of low molecular weight compounds ([1]; FIG. 4, 3C (CHIR99021, BRD7389, forskolin) without BRD7389, or with BI-D1870 5 μM or 10 μM instead of BRD7389, no LY294002, 14 days) | increase of the amount of insulin secretion by induction with a high concentration of insulin ([1]; FIG. 2, 120 μg/mL vs 20 μg/mL insulin in differentiation induction medium, cultured 14 days) | amount of insulin secreted as a function of insulin concentration in the differentiation induction medium ([1]; FIG. 3, insulin up to 100 μg/mL, cultured 14 days) | amount of insulin secreted with a high concentration of insulin in the differentiation induction medium [2]
1 | CC(C)CCN1c2nc(Nc3cc(F)c(O)c(F)c3)ncc2N(C)C(=O)C1C (stereo not shown) [BI-D1870, reference compound] | insulin-producing cells with a higher secretory capacity were also obtained | – | – | –
2 | insulin: Human recombinant insulin (Cat#: 093-06351; Wako) added to the differentiation induction medium | – | about 3 times | the greater was the amount of insulin secreted | increased markedly
